Reference: US10213415B2, “Compounds as opioid receptor modulators” (JANSSEN PHARMACEUTICA NV, priority 2004, dated 2019)
“And” between values parts separate entries of the source, which are not always exact repeats. Equal entries are not always repeated. Where two headings read alike, the source gives them in different places.

Key:
male CD-1 mice [1] = test: In Vivo Assay: Stress-Induced Entire GI Tract Transit (MEGIT, MEGIT-NES, MEGIT-RS); design: species or system mouse; conditions: dose 20 p.o., restraint stress
Protocol: Methods: The animals used in these studies are male CD-1 mice, ave. wt. ˜30 g. Procedure: Mice were housed in LAM under 12 h/12 h light/dark cycle, food & water ad lib. On the day before the experiments, the mice assigned to the “acclimated” (non-stressed) control group were placed into individual wire mesh-bottomed cages, provided food and water ad lib. The acclimated control group was in this new environment for 16-18 hrs prior to beginning the test. On the day of the experiment, mice assigned to experimental groups were housed in home cages were transported to procedure room and remain in their home cages until the start of the transit portion of the study. […] After the carmine marker was administered each mouse was placed in the novel environment cage. One hour after administration of carmine, the fecal pellet output of each animal was recorded. At one-hour intervals thereafter the fecal pellets were examined for the presence of carmine-dye. The number of mice that excreted a carmine-containing fecal pellet at the end of each hour post carmine administration was recorded, until all mice had excreted carmine in a fecal pellet or the end of 6 hrs post carmine administration, whichever occurred first. A variant of this novel environment stress (NES) paradigm is to use the same procedures of dye and compound administrations, but to use restraint (confinement in a small plastic tube for 3 hr) as a stressor (RS=restraint stress), followed by two hours in an individual cage (total of 5 hr fecal transit time). […] The mouse entire GI tract (MEGIT) transit test can thus be done in mice that are all acclimated (non-stressed), in which case the data are expressed as % control (vehicle only), or in mice that are exposed to NES or RS, in which cases the data are expressed as % of the vehicle treated NES or RS group.

male CD-1 mice [2] = test: In Vivo Assay: Upper GI Tract Transit (MUGIT); conditions: Mus musculus, po, 1 h, dose 30 (mg), p.o., read-out: upper GI transit (% ctrl)
Protocol: Methods: The animals used in these studies were male CD-1 mice, ave. wt. ˜30 g. Mice were housed under 12 h/12 h light/dark cycle, food & water ad lib. On the day of the experiment mice were assigned to experimental groups, including one vehicle-only group (=control). At 30 min before administration of carmine dye, animals were dosed with vehicle or vehicle-plus-compound, mice were returned to their home cages after drug administration. After administration of carmine, the animals were either returned to their home cages (non-stressed) or individually placed in the same metal cages as used in the fecal output or entire GI tract transit to induce a novel environment stress. One hour after administration of carmine, mice were sacrificed by cervical dislocation, the abdomen opened midventrally, the small intestine from pylorus to cecum was removed, the mesentery divided in order to lay the intestine straight & flat—without stretching. The total length of intestine and the length of carmine-dyed intestine were measured in order to determine the percent of the upper GI tract over which transit had occurred as follows: {(Length of carmine-dyed intestine)/(Total length of intestine)}×100=% upper GI transit. The data expressed were group means±SD (or s.e.m.) and data expressed as % of control.

[3] = test system: novel environment-stressed mice; test: In Vivo Assay-Stress-Induced Fecal Output (Fecal Output for 1 hr); design: species or system mouse; conditions: for Fecal Output (# pellets) cpd: novel environment-stressed mice; for Fecal Output (# pellets) cpd / response vs control in vivo at 30 mg/kg / response vs control in vivo at 10 mg/kg: 1 hr; for response vs control in vivo at 30 mg/kg / response vs control in vivo at 10 mg/kg: Mus musculus, po, 1 h
Method in brief: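 Adult male Crl:CD-1(ICR) mice (˜30-35 g; at least 10 per dose group) were split into acclimated non-stressed controls, held individually for 16-18 hr in wire-mesh-bottom cages, and non-acclimated stressed groups. Mice were dosed intragastrically with vehicle or test compound in 0.5% methylcellulose, housed individually in novel cages over absorbent cardboard, and fecal pellets per mouse were counted hourly.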

[4] = biological target: T1, human delta subtype 2 opioid receptor (Homo sapiens, UniProt P41143); test: Human Delta Opioid Receptor Binding Assay (CHO membranes, 3H-Naltrindole); conditions: read-out: hKi δ
T1 construct: purchased Perkin Elmer RBHODM400UA; host or cells: Chinese Hamster Ovary cells (recombinant expression)
T1 sequence (P41143 whole entry): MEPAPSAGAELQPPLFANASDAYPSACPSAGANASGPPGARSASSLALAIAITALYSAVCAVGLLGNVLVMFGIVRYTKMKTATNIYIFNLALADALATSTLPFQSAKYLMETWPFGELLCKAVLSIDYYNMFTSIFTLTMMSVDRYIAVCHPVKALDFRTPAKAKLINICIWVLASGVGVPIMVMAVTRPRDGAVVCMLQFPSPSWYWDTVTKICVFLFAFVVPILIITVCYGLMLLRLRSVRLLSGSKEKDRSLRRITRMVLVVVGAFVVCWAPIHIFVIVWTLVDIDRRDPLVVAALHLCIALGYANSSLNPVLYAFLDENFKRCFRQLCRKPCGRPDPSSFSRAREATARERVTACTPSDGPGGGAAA
Method in brief: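 Filtration binding on CHO-cell membranes expressing the human receptor, in 50 mM Tris pH 7.5 with 5 mM MgCl2, 30 min at room temperature; 3H-naltrindole diluted to 6 nM before mixing 1:1 with compound. Nonspecific binding defined with 1 μM unlabelled naltrindole; inhibition relative to no-inhibitor wells.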

[5] = 30 mg/kg oral, relative to acclimated control, read-out: Fecal Output cpd % control
[6] = 30 mg/kg oral, relative to novel environment stress (NES) vehicle group, read-out: Fecal Output cpd % NES
[7] = 10 mg/kg oral, relative to acclimated control, read-out: Fecal Output cpd % control
[8] = 10 mg/kg oral, relative to novel environment stress (NES) vehicle group, read-out: Fecal Output cpd % NES

`COc1ccc(CN(C(=O)[C@@H](N)Cc2ccc(C(N)=O)cc2)[C@@H](C)c2nc(-c3ccccc3)c[nH]2)cc1C(=O)O` [Cpd 4] was tested, and the “MEGIT-RS entire GI transit 5 hr (% RS)” value (male CD-1 mice [1]) was 100 % RS.
For `COc1ccc(CN(C(=O)[C@@H](N)Cc2c(C)cc(C(N)=O)cc2C)[C@@H](C)c2nc(-c3ccccc3)c[nH]2)cc1-c1nnn[nH]1` [Cpd 8], the response vs control in vivo at 30 mg (male CD-1 mice [2]) was 77.3%.
Compound `COC(=O)c1cc(CN(C(=O)[C@@H](N)Cc2c(C)cc(C(N)=O)cc2C)[C@@H](C)c2nc(-c3ccccc3)c[nH]2)ccc1OC` [Cpd 17] has a response vs control in vivo at 30 mg (male CD-1 mice [2]) of 37.3%.
With `Cc1cc(O)cc(C)c1C[C@H](N)C(=O)N(Cc1cccc(C(=O)O)c1)[C@@H](C)c1nc(-c2ccccc2)c[nH]1` [Cpd 48] the response vs control in vivo at 30 mg (male CD-1 mice [2]) was 102%.
With `Cc1cc(C(N)=O)cc(C)c1C[C@H](N)C(=O)N(Cc1ccc(C(=O)O)cc1)[C@@H](C)c1nc(-c2ccccc2)c[nH]1` [Cpd 50] the “Fecal Output (# pellets) cpd” value ([3]; 30 mg/kg oral) was 3.3 pellets, the response vs control in vivo at 30 mg/kg [3, 5] was 144% and the response vs control in vivo at 30 mg/kg [3, 6] was 47.1%.
`Cc1cc(C(N)=O)cc(C)c1C[C@H](N)C(=O)N(Cc1ccccc1)[C@@H](C)c1nc(-c2ccccc2)c[nH]1` [Cpd 114] was tested, and the “Fecal Output (# pellets) cpd” value ([3]; 30 mg/kg oral) was 7.8 pellets, the response vs control in vivo at 30 mg/kg [3, 5] was 108% and the response vs control in vivo at 30 mg/kg [3, 6] was 75.7%. For the same compound, the “# of pellets, Compound (m) 3.0” value ([3]; dose 3.0, oral, NES mice, fecal output 1 hr) was 9.6, the “Fecal pellet output, Compound (% control) 3.0” value ([3]; dose 3.0, oral, NES mice, vs acclimated control) was 282.4 % control and the “Fecal pellet output, Compound (% NES) 3.0” value ([3]; dose 3.0, oral, vs vehicle NES group) was 96 % NES. For the same compound, the “# of pellets, Compound (m) 10.0” value ([3]; dose 10.0, oral, NES mice, fecal output 1 hr) was 7.7, the “Fecal pellet output, Compound (% control) 10.0” value ([3]; dose 10.0, oral, NES mice, vs acclimated control) was 226.5 % control and the “Fecal pellet output, Compound (% NES) 10.0” value ([3]; dose 10.0, oral, vs vehicle NES group) was 77 % NES. The “# of pellets, Compound (m) 30.0” value ([3]; dose 30.0, oral, NES mice, fecal output 1 hr) was 5.4, the “Fecal pellet output, Compound (% control) 30.0” value ([3]; dose 30.0, oral, NES mice, vs acclimated control) was 159 % control and the “Fecal pellet output, Compound (% NES) 30” value ([3]; dose 30, oral, vs vehicle NES group) was 54 % NES. The Ki [4] was 49 nM.
With `Cc1cc(O)cc(C)c1C[C@H](N)C(=O)N(Cc1nc(-c2ccc(F)cc2)c(C)[nH]1)C(C)C` [Cpd 163] the Ki [4] was 301 nM and 63 nM.
Work on `Cc1ccccc1-c1nc(CN(C(=O)[C@@H](N)Cc2c(C)cc(O)cc2C)C(C)C)[nH]c1C` [Cpd 165] yielded a Ki [4] of 322 nM.
`Cc1cc(O)cc(C)c1C[C@H](N)C(=O)N(Cc1nc(-c2ccccc2)c(C)[nH]1)C(C)C` [Cpd 166] was tested, and the Ki [4] was 300 nM and 375 nM.
Compound `Cc1cc(O)cc(C)c1C[C@H](N)C(=O)N(Cc1nc(-c2ccccc2)c[nH]1)C1CCCCC1` [Cpd 190] has a Ki [4] of 285 nM.
For `Cc1cc(O)cc(C)c1C[C@H](N)C(=O)N(Cc1nc(-c2ccccc2)c[nH]1)CC1CC1` [Cpd 192], the “Fecal Output (# pellets) cpd” value ([3]; 10 mg/kg oral) was 10.5 pellets, the response vs control in vivo at 10 mg/kg [3, 7] was 194% and the response vs control in vivo at 10 mg/kg [3, 8] was 84%.
With `Cc1cc(O)cc(C)c1C[C@H](N)C(=O)N(Cc1nc(-c2ccccc2)c[nH]1)C(C)C` [Cpd 194] the “Fecal Output (# pellets) cpd” value ([3]; 10 mg/kg oral) was 11.8 pellets, the response vs control in vivo at 10 mg/kg [3, 7] was 218% and the response vs control in vivo at 10 mg/kg [3, 8] was 94.4%. The Ki [4] was 103 nM.
